Measurements: patent US5807535A, “Metal complexes of hydroxyaryl containing aminocarboxylic acid chelating agents” (Australian Nuclear Science & Technology Organisation, priority 1992, dated 1998)
Read-outs that look alike come from different tables or passages of the source.

Legend:
[1] = Biodistribution of 67Ga complexes in mice; type: in vivo, balb/c mice
Protocol: To ligand (50 μL, 10 mg/mL, 0.2 M NaOAc, […]) was added ^67 Ga citrate (18.5 MBq) and the resultant mixture diluted to 1 mL (0.2 M NaOAc, pH 7). The pH was adjusted to 12 with 1 M NaOH (20 μL) and heated at 40° C. for 40 min. The final volume was adjusted (to 5 mL) with saline and sterilised by filtering through a 0.22 μm filter.
Each animal was injected via tail vein with ^67 Ga complex (100 μL, ~3.7×10^5 Bq). Animals were sacrificed at various time intervals (5 animals per time point/6 time points). Data are illustrated in FIG. 26-30 and in Tables 13-17.
Each ^67 Ga-ligand complex has been evaluated in balb/c mice. […] (see FIG. 26-30).

[2] = Biodistribution of 99mTc complexes in mice; type: in vivo, Balb/c mice
Text: (§1) A series of derivatives incorporating carboxyl and phenolate donor groups (1-6) were synthesised by literature method and their radiolabelling characteristic and biological behaviour evaluated. Initial work involved an investigation of radiochemical properties of the ^99m Tc complexes of the ligands and their biodistribution in rats and mice (see Tables 1-6 and 8-12).
(§2) A typical method of radiolabelling of the chelator was achieved by dissolving the chelator in a basic solution of saline. The pH was then adjusted to approx. 6 with HCl. Excess stannous chloride was added to the resultant solution followed by one equivalent volume of sodium ^99m TcO4 (10-50 mCi/ml). Final concentration of the chelator was approx. 1 mg/ml. The efficacy of labelling was determined by ITLC-SG. For each product only one main radiochemical species was observed. Each complex was diluted to 15 μCi/100 μl with saline. […] (See FIGS. 1A and 1B).

[3] = Biodistribution of compound No. 6 in mice (Table 6); type: in vivo, Balb/c mice; conditions: mouse; for tissue uptake at 0.05 h: 3 min
Text: as §1, §2

[4] = lymphoma diagnosis; cited from earlier work
[5] = blood, read-out: biodistribution blood
[6] = bone, read-out: biodistribution bone
[7] = brain, read-out: biodistribution brain
[8] = heart, read-out: biodistribution heart
[9] = kidneys, read-out: biodistribution kidneys
[10] = liver, read-out: biodistribution liver
[11] = lungs, read-out: biodistribution lungs
[12] = muscle, read-out: biodistribution muscle
[13] = pancreas, read-out: biodistribution pancreas
[14] = skin, read-out: biodistribution skin
[15] = spleen, read-out: biodistribution spleen
[16] = stomach, read-out: biodistribution stomach
[17] = tail, read-out: biodistribution tail
[18] = thymus, read-out: biodistribution thymus
[19] = thyroid, read-out: biodistribution thyroid
[20] = total git, read-out: biodistribution tot GIT
[21] = urine, read-out: biodistribution urine

Cc1cc(C)c(O)c(NC(=O)CN(CCN(CC(=O)O)CC(=O)Nc2cc(C)cc(C)c2O)CC(=O)O)c1 [Compound 6]
biodistribution bone ([1]; 1 min): 4.33 % ID | biodistribution kidney ([1]; 1 min): 9.95 % ID | biodistribution liver ([1]; 1 min): 26.45 % ID | biodistribution muscle ([1]; 1 min): 17.93 % ID | biodistribution skin ([1]; 1 min): 13.91 % ID | biodistribution spleen ([1]; 1 min): 0.22 % ID | biodistribution bone ([1]; 3 min): 2.41 % ID | biodistribution kidney ([1]; 3 min): 5.24 % ID | biodistribution liver ([1]; 3 min): 34.06 % ID | biodistribution muscle ([1]; 3 min): 10.67 % ID | biodistribution skin ([1]; 3 min): 12.80 % ID | biodistribution spleen ([1]; 3 min): 0.08 % ID | biodistribution bone ([1]; 5 min): 1.67 % ID | biodistribution kidney ([1]; 5 min): 3.36 % ID | biodistribution liver ([1]; 5 min): 30.21 % ID | biodistribution muscle ([1]; 5 min): 6.35 % ID | biodistribution skin ([1]; 5 min): 10.62 % ID | biodistribution spleen ([1]; 5 min): 0.04 % ID | biodistribution bone ([1]; 10 min): 0.96 % ID | biodistribution kidney ([1]; 10 min): 1.98 % ID | biodistribution liver ([1]; 10 min): 18.58 % ID | biodistribution muscle ([1]; 10 min): 4.37 % ID | biodistribution skin ([1]; 10 min): 5.76 % ID | biodistribution spleen ([1]; 10 min): 0.03 % ID | biodistribution bone ([1]; 30 min): 0.34 % ID | biodistribution kidney ([1]; 30 min): 0.79 % ID | biodistribution liver ([1]; 30 min): 3.15 % ID | biodistribution muscle ([1]; 30 min): 7.73 % ID | biodistribution skin ([1]; 30 min): 0.86 % ID | biodistribution spleen ([1]; 30 min): 0.01 % ID | biodistribution kidney ([1]; 120 min): 0.06 % ID | biodistribution liver ([1]; 120 min): 1.33 % ID | biodistribution muscle ([1]; 120 min): 1.85 % ID | biodistribution skin ([1]; 120 min): 0.10 % ID | biodistribution spleen ([1]; 120 min): 0.00 % ID | biodistribution GIT ([2]; 1 min): 3.58 % Injected dose | biodistribution bladder ([2]; 1 min): 0.06 % Injected dose | biodistribution blood ([2]; 1 min): 41.63 % Injected dose | biodistribution bone ([2]; 1 min): 7.37 % Injected dose | biodistribution heart ([2]; 1 min): 0.46 % Injected dose | biodistribution kidney ([2]; 1 min): 7.57 % Injected dose | biodistribution liver ([2]; 1 min): 22.44 % Injected dose | biodistribution lungs ([2]; 1 min): 1.71 % Injected dose | biodistribution muscle ([2]; 1 min): 13.95 % Injected dose | biodistribution skin ([2]; 1 min): 8.13 % Injected dose | biodistribution spleen ([2]; 1 min): 0.2 % Injected dose | biodistribution stomach ([2]; 1 min): 0.4 % Injected dose | biodistribution tail ([2]; 1 min): 8.46 % Injected dose | biodistribution urine ([2]; 1 min): 0.07 % Injected dose | biodistribution GIT ([2]; 3 min): 11.98 % Injected dose | biodistribution bladder ([2]; 3 min): 0.08 % Injected dose | biodistribution blood ([2]; 3 min): 15.59 % Injected dose | biodistribution bone ([2]; 3 min): 3.5 % Injected dose | biodistribution heart ([2]; 3 min): 0.2 % Injected dose | biodistribution kidney ([2]; 3 min): 5.68 % Injected dose | biodistribution liver ([2]; 3 min): 35.66 % Injected dose | biodistribution lungs ([2]; 3 min): 0.65 % Injected dose | biodistribution muscle ([2]; 3 min): 7.87 % Injected dose | biodistribution skin ([2]; 3 min): 8.31 % Injected dose | biodistribution spleen ([2]; 3 min): 0.09 % Injected dose | biodistribution stomach ([2]; 3 min): 0.43 % Injected dose | biodistribution tail ([2]; 3 min): 7.37 % Injected dose | biodistribution urine ([2]; 3 min): 0.81 % Injected dose | biodistribution GIT ([2]; 5 min): 27.85 % Injected dose | biodistribution bladder ([2]; 5 min): 0.07 % Injected dose | biodistribution blood ([2]; 5 min): 10.31 % Injected dose | biodistribution bone ([2]; 5 min): 3.86 % Injected dose | biodistribution heart ([2]; 5 min): 0.16 % Injected dose | biodistribution kidney ([2]; 5 min): 4.53 % Injected dose | biodistribution liver ([2]; 5 min): 30.85 % Injected dose | biodistribution lungs ([2]; 5 min): 0.69 % Injected dose | biodistribution muscle ([2]; 5 min): 7.24 % Injected dose | biodistribution skin ([2]; 5 min): 9.28 % Injected dose | biodistribution spleen ([2]; 5 min): 0.14 % Injected dose | biodistribution stomach ([2]; 5 min): 5.42 % Injected dose | biodistribution tail ([2]; 5 min): 7.64 % Injected dose | biodistribution urine ([2]; 5 min): 0.59 % Injected dose | biodistribution GIT ([2]; 10 min): 45.71 % Injected dose | biodistribution bladder ([2]; 10 min): 0.23 % Injected dose | biodistribution blood ([2]; 10 min): 6.34 % Injected dose | biodistribution bone ([2]; 10 min): 2.76 % Injected dose | biodistribution heart ([2]; 10 min): 0.08 % Injected dose | biodistribution kidney ([2]; 10 min): 2.44 % Injected dose | biodistribution liver ([2]; 10 min): 16.04 % Injected dose | biodistribution lungs ([2]; 10 min): 0.45 % Injected dose | biodistribution muscle ([2]; 10 min): 5.27 % Injected dose | biodistribution skin ([2]; 10 min): 5.17 % Injected dose | biodistribution spleen ([2]; 10 min): 0.07 % Injected dose | biodistribution stomach ([2]; 10 min): 3.42 % Injected dose | biodistribution tail ([2]; 10 min): 4.77 % Injected dose | biodistribution urine ([2]; 10 min): 1.231 % Injected dose | biodistribution GIT ([2]; 30 min): 51.18 % Injected dose | biodistribution bladder ([2]; 30 min): 0.2 % Injected dose | biodistribution blood ([2]; 30 min): 9.66 % Injected dose | biodistribution bone ([2]; 30 min): 2.54 % Injected dose | biodistribution heart ([2]; 30 min): 0.11 % Injected dose | biodistribution kidney ([2]; 30 min): 1.9 % Injected dose | biodistribution liver ([2]; 30 min): 14.05 % Injected dose | biodistribution lungs ([2]; 30 min): 0.39 % Injected dose | biodistribution muscle ([2]; 30 min): 6.92 % Injected dose | biodistribution skin ([2]; 30 min): 4.23 % Injected dose | biodistribution spleen ([2]; 30 min): 0.06 % Injected dose | biodistribution stomach ([2]; 30 min): 1.73 % Injected dose | biodistribution tail ([2]; 30 min): 2.41 % Injected dose | biodistribution urine ([2]; 30 min): 1.64 % Injected dose | tissue uptake at 0.05 h [3, 5]: 10.7 %ID/g | tissue uptake at 5 min [3, 5]: 7.83 %ID/g | tissue uptake at 0.05 h [3, 6]: 1.91 %ID/g | tissue uptake at 5 min [3, 6]: 1.39 %ID/g | tissue uptake at 0.05 h [3, 7]: 0.74 %ID/g | tissue uptake at 5 min [3, 7]: 0.35 %ID/g | tissue uptake at 0.05 h [3, 8]: 3.84 %ID/g | tissue uptake at 5 min [3, 8]: 2.8 %ID/g | tissue uptake at 0.05 h [3, 9]: 24.1 %ID/g | tissue uptake at 5 min [3, 9]: 18.4 %ID/g | tissue uptake at 0.05 h [3, 10]: 6.52 %ID/g | tissue uptake at 5 min [3, 10]: 9.39 %ID/g | tissue uptake at 0.05 h [3, 11]: 6.38 %ID/g | tissue uptake at 5 min [3, 11]: 4.66 %ID/g | tissue uptake at 0.05 h [3, 12]: 1.81 %ID/g | tissue uptake at 5 min [3, 12]: 1.26 %ID/g | tissue uptake at 0.05 h [3, 13]: 1.86 %ID/g | tissue uptake at 5 min [3, 13]: 1.41 %ID/g | tissue uptake at 0.05 h [3, 14]: 3.96 %ID/g | tissue uptake at 5 min [3, 14]: 3.47 %ID/g | tissue uptake at 0.05 h [3, 15]: 2.24 %ID/g | tissue uptake at 5 min [3, 15]: 1.78 %ID/g | tissue uptake at 0.05 h [3, 16]: 1.78 %ID/g | tissue uptake at 5 min [3, 16]: 6.85 %ID/g | tissue uptake at 0.05 h [3, 17]: 8.94 %ID/g | tissue uptake at 5 min [3, 17]: 6.18 %ID/g | tissue uptake at 0.05 h [3, 18]: 3.67 %ID/g | tissue uptake at 5 min [3, 18]: 2.5 %ID/g | tissue uptake at 0.05 h [3, 19]: 5.76 %ID/g | tissue uptake at 5 min [3, 19]: 3.73 %ID/g | tissue uptake at 0.05 h [3, 20]: 1.03 %ID/g | tissue uptake at 5 min [3, 20]: 2.12 %ID/g | tissue uptake at 0.05 h [3, 21]: 1.3 %ID/g | tissue uptake at 5 min [3, 21]: 0.95 %ID/g

O=C([O-])CC(O)(CC(=O)[O-])C(=O)[O-].[Ga+3] [Ga-67 citrate]
clearance [4]: clears slowly from the blood, through the liver, accumulating in the bowel | uptake at the disease sites [4]: relatively fast and selective uptake at the disease sites
